Reference: publication PMC11003488 (Journal of Enzyme Inhibition and Medicinal Chemistry, 2023)

Legend:
CCRF-CEM = assay: NCI-60 SRB growth inhibition, one-dose and five-dose; type: cell-based; conditions: Homo sapiens, read-out: percent growth inhibition
K-562 = assay: as above; type: cell-based; conditions: Homo sapiens, K562, read-out: percent growth inhibition
SR = assay: as above; type: cell-based; conditions: Homo sapiens, read-out: percent growth inhibition
A549/ATCC = assay: as above; type: cell-based; conditions: Homo sapiens, A549, read-out: percent growth inhibition
HOP-62 = assay: as above; type: cell-based; conditions: Homo sapiens, HOP-62, read-out: percent growth inhibition
HOP-92 = assay: as above; type: cell-based; conditions: Homo sapiens, HOP-92, read-out: percent growth inhibition
NCI-H226 = assay: as above; type: cell-based; conditions: Homo sapiens, NCI-H226, read-out: percent growth inhibition
NCI-H322M = assay: as above; type: cell-based; conditions: Homo sapiens, read-out: percent growth inhibition
NCI-H460 = assay: as above; type: cell-based; conditions: Homo sapiens, NCI-H460, read-out: percent growth inhibition
NCI-H522 = assay: as above; type: cell-based; conditions: Homo sapiens, NCI-H522, read-out: percent growth inhibition
COLO 205 = assay: as above; type: cell-based; conditions: Homo sapiens, COLO 205, read-out: percent growth inhibition
HCC-2998 = assay: as above; type: cell-based; conditions: Homo sapiens, HCC 2998, read-out: percent growth inhibition
HCT-116 = assay: as above; type: cell-based; conditions: Homo sapiens, HCT-116, read-out: percent growth inhibition
HCT-15 = assay: as above; type: cell-based; conditions: Homo sapiens, HCT-15, read-out: percent growth inhibition
HT29 = assay: as above; type: cell-based; conditions: Homo sapiens, HT-29, read-out: percent growth inhibition
SF-268 = assay: as above; type: cell-based; conditions: Homo sapiens, SF-268, read-out: percent growth inhibition
SF-295 = assay: as above; type: cell-based; conditions: Homo sapiens, SF-295, read-out: percent growth inhibition
SF-539 = assay: as above; type: cell-based; conditions: Homo sapiens, SF-539, read-out: percent growth inhibition
SNB-19 = assay: as above; type: cell-based; conditions: Homo sapiens, SNB-19, read-out: percent growth inhibition
LOX IMVI = assay: as above; type: cell-based; conditions: Homo sapiens, read-out: percent growth inhibition
MALME-3M = assay: as above; type: cell-based; conditions: Homo sapiens, read-out: percent growth inhibition
MDA-MB-435 = assay: as above; type: cell-based; conditions: Homo sapiens, MDA-MB-435, read-out: percent growth inhibition
SK-MEL-5 = assay: as above; type: cell-based; conditions: Homo sapiens, SK-MEL-5, read-out: percent growth inhibition
UACC-62 = assay: as above; type: cell-based; conditions: Homo sapiens, UACC-62, read-out: percent growth inhibition
IGROV1 = assay: as above; type: cell-based; conditions: Homo sapiens, IGROV-1, read-out: percent growth inhibition
OVCAR-3 = assay: as above; type: cell-based; conditions: Homo sapiens, OVCAR-3, read-out: percent growth inhibition
OVCAR-4 = assay: as above; type: cell-based; conditions: Homo sapiens, OVCAR-4, read-out: percent growth inhibition
OVCAR-5 = assay: as above; type: cell-based; conditions: Homo sapiens, OVCAR-5, read-out: percent growth inhibition
NCI/ADR-RES = assay: as above; type: cell-based; conditions: Homo sapiens, read-out: percent growth inhibition
786-0 = assay: as above; type: cell-based; conditions: Homo sapiens, 786-0, read-out: percent growth inhibition
A498 = assay: as above; type: cell-based; conditions: Homo sapiens, A498, read-out: percent growth inhibition
ACHN = assay: as above; type: cell-based; conditions: Homo sapiens, read-out: percent growth inhibition
CAKI-1 = assay: as above; type: cell-based; conditions: Homo sapiens, CAKI-1, read-out: percent growth inhibition
RXF 393 = assay: as above; type: cell-based; conditions: Homo sapiens, RXF 393, read-out: percent growth inhibition
DU-145 = assay: as above; type: cell-based; conditions: Homo sapiens, DU-145, read-out: percent growth inhibition
MCF7 = assay: as above; type: cell-based; conditions: Homo sapiens, MCF7, read-out: percent growth inhibition
HS 578 T = assay: as above; type: cell-based; conditions: Homo sapiens, read-out: percent growth inhibition
BT-549 = assay: as above; type: cell-based; conditions: Homo sapiens, BT-549, read-out: percent growth inhibition
T-47D = assay: as above; type: cell-based; conditions: Homo sapiens, T47D, read-out: percent growth inhibition
[1] = tested on: NCI 60-cell line panel (full panel); assay: NCI-60 SRB growth inhibition, full panel mean / MG-MID; type: cell-based, human; conditions: mean over NCI-60 panel; single dose 10 µM
SNB-75 = assay: NCI-60 SRB growth inhibition, one-dose and five-dose; type: cell-based; conditions: Homo sapiens, SNB-75, read-out: percent growth inhibition
SK-MEL-2 = assay: as above; type: cell-based; conditions: Homo sapiens, SK-MEL-2, read-out: percent growth inhibition

O=C(/C=C/c1c[nH]cn1)c1cccc(NCc2ccc3oc(=O)ccc3c2)c1 [Compound 5n, (E)-6-(((3–(3-(1H-imidazol-4-yl)acryloyl)phenyl)amino)methyl)-2H-chromen-2-one]
inhibition at 10 µM (CCRF-CEM): 62.1% | inhibition at 10 µM (K-562): 87.2% | inhibition at 10 µM (SR): 98.1% | inhibition at 10 µM (A549/ATCC): 25.6% | inhibition at 10 µM (HOP-62): 24.3% | inhibition at 10 µM (HOP-92): 25.8% | inhibition at 10 µM (NCI-H226): 28.2% | inhibition at 10 µM (NCI-H322M): 18.1% | inhibition at 10 µM (NCI-H460): 23.4% | inhibition at 10 µM (NCI-H522): 138% | inhibition at 10 µM (COLO 205): 29.2% | inhibition at 10 µM (HCC-2998): 16.8% | inhibition at 10 µM (HCT-116): 58.1% | inhibition at 10 µM (HCT-15): 33.9% | inhibition at 10 µM (HT29): 63.2% | inhibition at 10 µM (SF-268): 10.9% | inhibition at 10 µM (SF-295): 12.6% | inhibition at 10 µM (SF-539): 14.8% | inhibition at 10 µM (SNB-19): 25.7% | inhibition at 10 µM (LOX IMVI): 75.9% | inhibition at 10 µM (MALME-3M): 37.8% | inhibition at 10 µM (MDA-MB-435): 14.5% | inhibition at 10 µM (SK-MEL-5): 30.6% | inhibition at 10 µM (UACC-62): 45.2% | inhibition at 10 µM (IGROV1): 16.6% | inhibition at 10 µM (OVCAR-3): 13.8% | inhibition at 10 µM (OVCAR-4): 39.2% | inhibition at 10 µM (OVCAR-5): 10.4% | inhibition at 10 µM (NCI/ADR-RES): 10.6% | inhibition at 10 µM (786-0): 31.8% | inhibition at 10 µM (A498): 4.82% | inhibition at 10 µM (ACHN): 24.8% | inhibition at 10 µM (CAKI-1): 8.01% | inhibition at 10 µM (RXF 393): 38.5% | inhibition at 10 µM (DU-145): 20.9% | inhibition at 10 µM (MCF7): 90.1% | inhibition at 10 µM (HS 578 T): 13.6% | inhibition at 10 µM (BT-549): 22.9% | inhibition at 10 µM (T-47D): 54% | Full panel Mean GI % [1]: 37.53%

CC(=O)Nc1ccc(/C=C/C(=O)c2cccc(NCc3ccc4oc(=O)ccc4c3)c2)cc1 [Compound 5k, (E)-N-(4–(3-oxo-3–(3-(((2-oxo-2H-chromen-6-yl)methyl)amino)phenyl)prop-1-en-1-yl)phenyl)acetamide]
inhibition at 10 µM (CCRF-CEM): 87.9% | inhibition at 10 µM (K-562): 93.3% | inhibition at 10 µM (A549/ATCC): 21.5% | inhibition at 10 µM (HOP-62): 10.8% | inhibition at 10 µM (HOP-92): 3.27% | inhibition at 10 µM (NCI-H226): 35.7% | inhibition at 10 µM (NCI-H322M): 15.3% | inhibition at 10 µM (NCI-H460): 22.7% | inhibition at 10 µM (NCI-H522): 36.3% | inhibition at 10 µM (COLO 205): -13.2% | inhibition at 10 µM (HCC-2998): 10% | inhibition at 10 µM (HCT-116): 78.8% | inhibition at 10 µM (HCT-15): 50.7% | inhibition at 10 µM (HT29): 15.6% | inhibition at 10 µM (SF-268): 18.2% | inhibition at 10 µM (SF-295): 36.8% | inhibition at 10 µM (SF-539): 19% | inhibition at 10 µM (SNB-19): 38.8% | inhibition at 10 µM (SNB-75): 25.4% | inhibition at 10 µM (LOX IMVI): 57.8% | inhibition at 10 µM (MALME-3M): 37.8% | inhibition at 10 µM (MDA-MB-435): 22.1% | inhibition at 10 µM (SK-MEL-2): 35.7% | inhibition at 10 µM (SK-MEL-5): 76.3% | inhibition at 10 µM (UACC-62): 67.5% | inhibition at 10 µM (IGROV1): 23.3% | inhibition at 10 µM (OVCAR-3): 41.7% | inhibition at 10 µM (OVCAR-4): 43.9% | inhibition at 10 µM (OVCAR-5): 16.8% | inhibition at 10 µM (NCI/ADR-RES): 68.9% | inhibition at 10 µM (786-0): 24.2% | inhibition at 10 µM (A498): 20.4% | inhibition at 10 µM (ACHN): 34.7% | inhibition at 10 µM (CAKI-1): 37.7% | inhibition at 10 µM (RXF 393): 18% | inhibition at 10 µM (DU-145): 18.3% | inhibition at 10 µM (MCF7): 73.6% | inhibition at 10 µM (HS 578 T): 22.1% | inhibition at 10 µM (BT-549): 55.8% | inhibition at 10 µM (T-47D): 66% | Full panel Mean GI % [1]: 39.00%
